Experiments:
[1] = test system: GTL 16 cell line; assay: Antiproliferative activity against human GTL 16 cell line assessed as inhibition of cell viability incubated for 72 hrs by 3H-thymidine incorporation assay; format: functional, cell-based
[2] = test system: Rh41; assay: Induction of cell cycle arrest in human Rh41 cells assessed as accumulation of cells at G2/M phase at 10x IC50 incubated for 24 hrs by propidium iodide staining based flow cytometry analysis relative to control; format: functional
[3] = test system: Rh41; assay: Induction of cell cycle arrest in human Rh41 cells assessed as accumulation of cells at G2/M phase at 10x IC50 incubated for 48 hrs by propidium iodide staining based flow cytometry analysis relative to control; format: functional
[4] = test system: Mus musculus; assay: Anti-diabetic activity against nude mouse xenografted with mouse IGF-1R-Sal cells assessed as insulin level at 25 mg/kg, po administered for 2 hrs by ELISA analysis (Rvb= 0.39 +/- […]); format: functional
[5] = test system: GEO; assay: Antitumor activity against human GEO cells xenografted in nude mouse assessed as tumor growth inhibition at 6.25 mg/kg, po administered for 3 days in presence of cetuximab at 0.125 mg/kg relative to control; format: functional; conditions: 72 h, time 3 day, read-out: TGI
[6] = test system: GEO; assay: Antitumor activity against human GEO cells xenografted in nude mouse assessed as tumor growth delay time at 12.5 mg/kg, po administered for 17 days relative to control; format: functional; conditions: time 17 day
[7] = Toxicity in nude mouse xenografted with human GEO cells assessed as mortality at 25 mg/kg, po administered for 3 days in presence of cetuximab at 0.125 mg/kg relative to control; format: organism-based; conditions: in vivo, time 3 day

C[C@@]1(C(=O)Nc2ccc(F)nc2)CCCN1c1nc(Nc2cc(C3CC3)n[nH]2)c2cccn2n1 [BMS-754807]
IC50 [1]: 200 nM | Activity [2]: 2.8% | Activity [3]: 2.8% | Activity [4]: 17.2 ng/mL | inhibition in vivo at 6.25 mg/kg [5]: 79% | Time [6]: 4 days | mortality at 72 h [7]: 0%
